Key:
Zea mays (ZEAMX) = test: In vivo analyses Part A: drought stress, visual damage scoring, efficacy EF (ZEAMX); conditions: spray application 25 g/ha, efficacy = reduction in damage intensity
Method: Seeds of monocotyledonous and dicotyledonous crop plants were sown in sandy loam in wood-fibre pots, covered with soil or sand and cultivated in a greenhouse under good growth conditions. The test plants were treated at the early leaf stage (BBCH10-BBCH13). To assure uniform water supply before commencement of stress, the potted plants were supplied with water by dam irrigation prior to substance application. The inventive compounds, formulated in the form of wettable powders (WP), were sprayed onto the green parts of the plants as an aqueous suspension at an equivalent water application rate of 600 I/ha with addition of 0.2% wetting agent (e.g. agrotin). Substance application was followed immediately by stress treatment of the plants. For this purpose, the pots were transferred in plastic inserts in order to prevent them from subsequently drying out too quickly. Drought stress was induced by gradual drying out under the following conditions: “Day”: 14 hours with illumination at 26° C. “Night”: 10 hours without illumination at 18° C. The duration of the respective stress phases was guided mainly by the condition of the stressed control plants. […] Once this juncture was reached, the intensities of damage were scored visually in comparison to untreated, unstressed controls of the same age. The damage intensity was at first assessed in percent. […]

Brassica napus (BRSNS) = test: In vivo analyses Part A: drought stress, visual damage scoring, efficacy EF (BRSNS); conditions: spray application 250 g/ha, efficacy = reduction in damage intensity
Method: (§1) Seeds of monocotyledonous and dicotyledonous crop plants were sown in sandy loam in wood-fibre pots, covered with soil or sand and cultivated in a greenhouse under good growth conditions. The test plants were treated at the early leaf stage (BBCH10-BBCH13). To assure uniform water supply before commencement of stress, the potted plants were supplied with water by dam irrigation prior to substance application. The inventive compounds, formulated in the form of wettable powders (WP), were sprayed onto the green parts of the plants as an aqueous suspension at an equivalent water application rate of 600 I/ha with addition of 0.2% wetting agent (e.g. agrotin). Substance application was followed immediately by stress treatment of the plants. For this purpose, the pots were transferred in plastic inserts in order to prevent them from subsequently drying out too quickly. Drought stress was induced by gradual drying out under the following conditions: “Day”: 14 hours with illumination at 26° C. “Night”: 10 hours without illumination at 18° C. The duration of the respective stress phases was guided mainly by the condition of the stressed control plants. It was ended (by re-irrigating and transfer to a greenhouse with good growth conditions) as soon as irreversible damage was observed on the stressed control plants. The end of the stress phase was followed by an about 4-7-day recovery phase, during which the plants were once again kept under good growth conditions in a greenhouse. The duration of the recovery phase was guided mainly by when the trial plants had attained a state which enabled visual scoring of potential effects, and was therefore variable. Once this juncture was reached, the intensities of damage were scored visually in comparison to untreated, unstressed controls of the same age. The damage intensity was at first assessed in percent. […]

[1] = test system: Triticum aestivum (TRZAS); test: In vivo analyses Part A: drought stress, visual damage scoring, efficacy EF (TRZAS); conditions: spray application 25 g/ha, efficacy = reduction in damage intensity
Method: as §1

CCOC(=O)/C=C(/C)C#CC(O)(c1ccccc1)C1(C#N)CC1 (stereo not drawn) [I.1-236, Ethyl (2Z)-6-(1-cyanocyclopropyl)-6-hydroxy-3-methyl-6-phenylhex-2-en-4-ynoate]
>5%: EF [%] (ZEAMX) (Zea mays (ZEAMX)) | EF [%] (BRSNS) (Brassica napus (BRSNS)) | EF [%] (TRZAS) [1]
